# Data from US20240325389A1, “NEW THERAPEUTIC TARGETS WITH AN ANTI-INFLAMMATORY AND ANTI-INTERFERON EFFECT” (priority 2020, published 2024).
# Like-named read-outs stand apart in the source and are kept apart here.
# How the values were obtained:
# [1] = test system: monocytes of healthy donors; assay: Intracellular TNFα production in monocytes after TLR7/8 (R848) stimulation, flow cytometry; assay type: cell-based, human; settings: for production of inflammatory cytokines: PBMCs and purified monocytes of healthy donors, Toll-like receptor 7/8 (R848); for intracellular production of inflammatory cytokines (TNFα): monocytes, inhibitor 1 h before R848 5 μg/ml (TLR7/8), 16 h
# [2] = test system: peripheral blood mononuclear cells (PBMCs) of healthy donors; assay: Cytokine and interferon secretion by PBMCs after TLR7/8 (R848) stimulation, LegendPlex; assay type: cell-based, human; settings: for production and secretion of pro-inflammatory cytokines, such as IL-6, IL-1p and the interferons induced by the TLR7/8 stimulation / production of TNFα induced by the TLR7/8 stimulation: human PBMCs incubated with inhibitor before R848
# [3] = test system: peripheral blood mononuclear cells (PBMCs) of healthy donors; assay: Test for toxicity of the compounds on PBMCs (CellTiter-Glo, ATP); assay type: cell-based, human; settings: 24 h of cell culture
# Protocol: Test for toxicity of the compounds on the peripheral blood mononuclear cells (PBMCs).
# After 24 h of cell culture, the cell viability was determined using the CellTiter-Glo reagent (Promega), which evaluates the amount of ATP by luminescence using the EnSpire.
# [4] = test system: monocytes of healthy donors; assay: Intracellular TNFα production in monocytes after TLR4 (LPS) stimulation, flow cytometry; assay type: cell-based, human; settings: for production of inflammatory cytokines: PBMCs and purified monocytes of healthy donors, Toll-like receptors 2/4 (lipoteichoic acid/LPS)
# [5] = test system: monocytes of healthy donors; assay: Intracellular TNFα production in monocytes after TLR2 (LTA) stimulation, flow cytometry; assay type: cell-based, human; settings: inhibitor 1 h before LTA 1 μg/ml (TLR2), 16 h
# [6] = test system: peripheral blood mononuclear cells (PBMCs) of healthy donors; assay: Cytokine and interferon secretion by PBMCs after TLR4 (LPS) stimulation, LegendPlex; assay type: cell-based, human; settings: inhibitor 1 h before LPS 100 ng/ml (TLR4), 24 h
# [7] = test system: monocytes of healthy donors; assay: Intracellular IL-1β and TNFα in monocytes after inflammasome activation by uric acid crystals (MSU, gout model), flow cytometry; assay type: cell-based, human; settings: for production of inflammatory cytokines: monocytes of healthy donors, activation of the inflammasome by uric acid crystals
# [8] = test system: plasmacytoid dendritic cells (pDC) of healthy donors; assay: Intracellular IFNα and TNFα in plasmacytoid dendritic cells in response to HIV, flow cytometry; assay type: cell-based, human; settings: inhibitor 1 h before AT-2-inactivated HIV-1MN, 16 h
# [9] = test system: peripheral blood mononuclear cells (PBMCs) of healthy donors; assay: Cytokine and interferon secretion by PBMCs in response to HIV, LegendPlex; assay type: cell-based, human; settings: inhibitor 1 h before AT-2-inactivated HIV-1MN, 24 h
# [10] = test system: peripheral blood mononuclear cells (PBMCs) of healthy donors; assay: Interferons secreted by R848-stimulated PBMCs, STING-37 reporter cell line; assay type: cell-based, human
# [11] = test system: monocytes of patients suffering from juvenile idiopathic arthritis; assay: Spontaneous TNFα production by monocytes of juvenile idiopathic arthritis patients, SIMOA; assay type: cell-based, human; settings: monocytes incubated with inhibitor for 24 h, no stimulation
# [12] = test system: T lymphocytes; assay: Activation of T lymphocytes by CD3/CD28 beads (CD69), flow cytometry; assay type: cell-based, human; settings: inhibitor 1 h at 1 and 5 μM, then CD3/CD28 beads 3 days
# [13] = test system: B lymphocytes; assay: Activation of B lymphocytes by CpG-A (CD69), flow cytometry; assay type: cell-based, human; settings: inhibitor 1 h at 1 μM, then CpG-A 1 μg/ml (TLR9) 24 h
# [14] = test system: THP1-Dual; assay: mRNA encoding TNFα, IL6 and MCP1 in LPS-activated THP1-Dual monocytes, RT-qPCR; assay type: cell-based, human; settings: inhibitor 1 h before LPS 100 ng/ml
# [15] = test system: 1C11 neuroectodermal stem cells; assay: mRNA encoding TNFα, IL6 and MCP1 in LPS-activated 1C11 stem cells, RT-qPCR; assay type: cell-based, Mus; settings: inhibitor 1 h before LPS 100 ng/ml
# [16] = test system: 1C11^5-HT serotonergic neurons; assay: mRNA encoding TNFα, IL6 and MCP1 in LPS-activated 1C11^5-HT neurons, RT-qPCR; assay type: cell-based, Mus; settings: inhibitor 1 h before LPS 100 ng/ml
# [17] = test system: DBA/1J mice; settings: for total average arthritis scores (histopathology): with respect to the control vehicle
# [18] = test system: peripheral blood mononuclear cells (PBMCs); assay: Interferon production by cGAMP-stimulated PBMCs, STING-37 reporter
# [19] = test system: THP1-Dual; assay: Interferon response of cGAMP-stimulated THP1-Dual cells, luciferase
# [20] = test system: HEK293; assay: Interferon production by cGAMP-stimulated HEK293 non-immune cells (STING-37), luciferase; settings: inhibitor at 1 μM, cGAMP 3 μg/ml, 24 h
# [21] = test system: neurones infected by the prions; assay type: cell-based
# [22] = monocytes, inhibitor 1 h before MSU 50 μg/ml, 16 h
# [23] = 10 mg/kg daily oral, terminal plasma, ELISA
# [24] = cGAMP stimulation, CellTiter Glo
smiles,measurement,setting,value
O=C(Nc1cccc(Nc2ncc(Br)c(NCCc3c[nH]cn3)n2)c1)N1CCCC1 [BX912],production of inflammatory cytokines,[1],capable of inhibiting
same,intracellular production of inflammatory cytokines (TNFα),[1],"inhibits, according to a dosage effect"
same,"secretion of the inflammatory cytokines (IL-6, IL-1β, TNFα, IP10, GM-CSF, IL-10) and the interferons (IFN11, IFN12/3, IFNβ, IFNg)","[2]; PBMCs, inhibitor 1 h before R848 5 μg/ml (TLR7/8), 24 h",inhibits
same,toxicity on the peripheral blood mononuclear cells (PBMCs),[3]; PBMCs infected with HIV,no toxicity
same,toxicity on the peripheral blood mononuclear cells (PBMCs),[3]; stimulation of the TLR4 receptors,no toxicity
same,toxicity on the immune cells (PBMCs),[3]; stimulation of the TLR7/8 receptors,no toxicity
same,production of inflammatory cytokines,[4],capable of inhibiting
same,production of inflammatory cytokines (TNFα),"[4]; monocytes, inhibitor 1 h before LPS 100 ng/ml (TLR4), 16 h","inhibits, according to a dosage effect"
same,production of inflammatory cytokines (TNFα),[5],"inhibits, according to a dosage effect"
same,"secretion of the inflammatory cytokines (IL-6, IL-1β, TNFα, GM-CSF, IL-10) and the interferons (IFNI⅔, IFNβ, IFNg)",[6],inhibits
same,production of inflammatory cytokines,[7],capable of inhibiting
same,intracellular production of IL-1β,[7]; [22],inhibits
same,production of TNFα,[7]; [22],inhibits
same,intracellular production of interferon IFNα,[8],inhibits
same,production of TNFα,[8],inhibits
same,"secretion of the inflammatory cytokines (IL-6, IL-1β, TNFα, P10) and the interferons (IFNα2, IFNβ, IFN11)",[9],inhibits
same,secretion of interferons,"[10]; curative: inhibitor 1 h after R848 (TLR7/8) stimulation, FIG. 15C",blocking
same,secretion of interferons,"[10]; inhibitor during the R848 (TLR7/8) stimulation, FIG. 15B",blocking
same,secretion of interferons,"[10]; preventive: inhibitor 1 h before R848 (TLR7/8) stimulation, FIG. 15A",blocking
same,spontaneous production of TNFα,[11],inhibits
same,expression of the CD69 marker at the surface of the T lymphocytes,[12],"inhibits, according to a dosage effect"
same,viability of the T lymphocytes,[12],without affecting the viability
same,expression of the CD69 marker at the surface of the B lymphocytes,[13],"inhibits, according to a dosage effect"
same,viability of the B lymphocytes,[13],without affecting the viability
same,"concentration from which the transcription of the gene encoding TNFα, IL6 and MCP1 induced by LPS is reduced, according to a dosage effect",[14],≥ 0.5 µM
same,"transcription of the genes encoding TNFα, IL6 and MCP1 induced by LPS",[15],does not block
same,"transcription of the genes encoding TNFα, IL6 and MCP1 induced by LPS",[16],does not block
same,effect on progression and severity of the disease,[17]; 0.5 mg/kg daily oral (group 3),no ameliorative effect
same,total average arthritis scores (histopathology),[17]; 0.5 mg/kg daily oral (group 3),slight reductions
same,rate of progression of the disease,[17]; 2 mg/kg daily oral (group 4),significant reduction
same,reduction in the (overall) severity of the disease at the end of the study,[17]; 2 mg/kg daily oral (group 4),56%
same,reduction in the (overall) severity of the disease at the end of the study,[17]; 10 mg/kg daily oral,82%
same,progression of the disease,[17]; 10 mg/kg daily oral (group 5),stopped
same,reduction in the terminal plasma levels of IL-1i,"[17]; 10 mg/kg daily oral (group 5), ELISA",37%
same,decrease in terminal plasma IL-6,[17]; [23],62%
same,rate of progression of the disease and severity of the disease,"[17]; daily oral, 0.5, 2 and 10 mg/kg",dose-dependent reduction
same,"concentration from which the production of interferons (IFN) induced by cGAMP is blocked, according to a dosage effect","[18]; PBMCs, inhibitor 1 h before cGAMP 3 μg/ml, 24 h",≥ 1 µM
same,viability of the PBMCs,[18]; [24],without affecting the viability
same,"concentration from which the production of interferons (IFN) induced by cGAMP is blocked, according to a dosage effect","[19]; THP1-Dual, inhibitor 1 h before cGAMP 3 μg/ml, 24 h",≥ 1 µM
same,viability of the THP1-Dual,[19]; [24],without affecting the viability
same,production of interferon induced by the STING ligand,[20],does not block
C[C@@H](N)[C@H]1CC[C@H](C(=O)Nc2ccncc2)CC1 [Y27632],production of inflammatory cytokines,[1],capable of inhibiting
same,intracellular production of inflammatory cytokines (TNFα),[1],"inhibits, according to a dosage effect"
same,"production and secretion of pro-inflammatory cytokines, such as IL-6, IL-1p and the interferons induced by the TLR7/8 stimulation",[2],inhibits
same,production of TNFα induced by the TLR7/8 stimulation,[2],inhibits
same,production of inflammatory cytokines,[4],capable of inhibiting
same,production of inflammatory cytokines,[7],capable of inhibiting
same,level of TNFα in the culture medium,[21],re-establishes
"Cc1cncc2cccc(S(=O)(=O)N3CCCNCC3C)c12 (centres unmarked) [formula (VIII), dimethylfasudil]","production and secretion of pro-inflammatory cytokines, such as IL-6, IL-1p and the interferons induced by the TLR7/8 stimulation",[2],inhibits
same,production of TNFα induced by the TLR7/8 stimulation,[2],inhibits
same,level of TNFα in the culture medium,[21],re-establishes
"C[C@]12C=CC(=O)C=C1CC[C@@H]1[C@@H]2[C@@H](O)C[C@@]2(C)[C@H]1CC[C@]2(O)C(=O)CO [prednisolone, reference compound]",reduction in the (overall) severity of the disease at the end of the study,[17]; 10 mg/kg daily oral,95%
same,decrease in plasma IFNγ,[17]; [23],49%
same,decrease in plasma TNFα,[17]; [23],54%
same,decrease in terminal plasma IL-6,[17]; [23],70%
same,total average arthritis scores (histopathology),[17]; 10 mg/kg daily oral,lowest
